Calls of active or inactive are those of the source. For most assays here, no stated cut-off is given here; in the data, actives have a measured Kd and inactives only a lower limit.

This note sets out measurements from ChEMBL document CHEMBL3991601, “The target landscape of clinical kinase drugs” (Science, 2017).

In assay [1] the target is Tyrosine-protein kinase ABL2 (Homo sapiens, UniProt P42684).
Another assay addresses Activin receptor type-2B (Homo sapiens, UniProt Q13705).
In another assay the target is T1, Ephrin type-B receptor 6 (Homo sapiens, UniProt O15197).
T1 sequence (O15197 whole entry): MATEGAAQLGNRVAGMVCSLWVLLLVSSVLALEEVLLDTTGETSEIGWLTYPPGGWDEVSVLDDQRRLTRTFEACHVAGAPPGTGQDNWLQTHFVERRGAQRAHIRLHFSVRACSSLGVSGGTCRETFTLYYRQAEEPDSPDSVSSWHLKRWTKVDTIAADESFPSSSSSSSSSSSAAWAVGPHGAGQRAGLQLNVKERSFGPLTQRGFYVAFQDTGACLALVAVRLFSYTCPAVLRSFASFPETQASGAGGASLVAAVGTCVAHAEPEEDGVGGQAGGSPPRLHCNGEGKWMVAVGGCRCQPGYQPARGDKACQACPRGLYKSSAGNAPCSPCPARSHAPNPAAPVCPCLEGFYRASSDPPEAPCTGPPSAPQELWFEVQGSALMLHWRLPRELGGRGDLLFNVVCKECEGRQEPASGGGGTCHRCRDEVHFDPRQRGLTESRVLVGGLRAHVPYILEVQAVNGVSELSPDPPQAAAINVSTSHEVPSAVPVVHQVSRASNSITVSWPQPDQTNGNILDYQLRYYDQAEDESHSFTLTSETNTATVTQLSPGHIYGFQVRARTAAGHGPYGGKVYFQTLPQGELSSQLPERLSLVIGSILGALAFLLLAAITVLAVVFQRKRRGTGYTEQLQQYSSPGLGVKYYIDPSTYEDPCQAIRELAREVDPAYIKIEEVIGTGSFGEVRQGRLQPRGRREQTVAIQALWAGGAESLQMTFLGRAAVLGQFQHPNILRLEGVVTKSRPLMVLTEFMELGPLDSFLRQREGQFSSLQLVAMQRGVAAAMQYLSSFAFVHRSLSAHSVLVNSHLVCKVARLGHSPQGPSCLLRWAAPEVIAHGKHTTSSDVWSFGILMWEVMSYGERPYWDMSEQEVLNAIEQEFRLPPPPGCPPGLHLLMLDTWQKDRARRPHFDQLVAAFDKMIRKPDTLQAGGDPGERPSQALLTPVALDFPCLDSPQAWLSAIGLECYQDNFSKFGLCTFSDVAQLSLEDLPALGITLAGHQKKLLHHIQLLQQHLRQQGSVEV

The target in assay [2] is T2, Phenylalanine--tRNA ligase beta subunit (Homo sapiens, UniProt Q9NSD9).
T2 sequence (Q9NSD9 whole entry): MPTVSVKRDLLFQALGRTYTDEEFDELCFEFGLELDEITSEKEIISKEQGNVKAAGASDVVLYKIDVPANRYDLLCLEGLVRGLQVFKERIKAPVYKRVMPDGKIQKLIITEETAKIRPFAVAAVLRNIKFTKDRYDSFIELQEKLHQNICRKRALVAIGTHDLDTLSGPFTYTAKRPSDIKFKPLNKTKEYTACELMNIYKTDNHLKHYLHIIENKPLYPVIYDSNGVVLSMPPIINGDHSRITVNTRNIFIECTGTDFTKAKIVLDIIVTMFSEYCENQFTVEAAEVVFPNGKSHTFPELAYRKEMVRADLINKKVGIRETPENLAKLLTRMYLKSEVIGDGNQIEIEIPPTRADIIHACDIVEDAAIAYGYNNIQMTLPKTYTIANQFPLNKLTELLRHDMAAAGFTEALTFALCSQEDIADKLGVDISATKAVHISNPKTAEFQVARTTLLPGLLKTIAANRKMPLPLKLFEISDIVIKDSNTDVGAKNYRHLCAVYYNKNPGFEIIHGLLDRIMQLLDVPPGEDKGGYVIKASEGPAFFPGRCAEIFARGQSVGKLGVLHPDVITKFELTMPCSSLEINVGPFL

The target in assay [3] is GTP-binding nuclear protein Ran (Homo sapiens, UniProt P62826).
The target of assay [4] is Ribosomal protein S6 kinase alpha-6 (Homo sapiens, UniProt Q9UK32).
Assay [5] addresses T3, Tyrosine-protein kinase Tec (Homo sapiens, UniProt P42680).
T3 sequence (P42680 whole entry): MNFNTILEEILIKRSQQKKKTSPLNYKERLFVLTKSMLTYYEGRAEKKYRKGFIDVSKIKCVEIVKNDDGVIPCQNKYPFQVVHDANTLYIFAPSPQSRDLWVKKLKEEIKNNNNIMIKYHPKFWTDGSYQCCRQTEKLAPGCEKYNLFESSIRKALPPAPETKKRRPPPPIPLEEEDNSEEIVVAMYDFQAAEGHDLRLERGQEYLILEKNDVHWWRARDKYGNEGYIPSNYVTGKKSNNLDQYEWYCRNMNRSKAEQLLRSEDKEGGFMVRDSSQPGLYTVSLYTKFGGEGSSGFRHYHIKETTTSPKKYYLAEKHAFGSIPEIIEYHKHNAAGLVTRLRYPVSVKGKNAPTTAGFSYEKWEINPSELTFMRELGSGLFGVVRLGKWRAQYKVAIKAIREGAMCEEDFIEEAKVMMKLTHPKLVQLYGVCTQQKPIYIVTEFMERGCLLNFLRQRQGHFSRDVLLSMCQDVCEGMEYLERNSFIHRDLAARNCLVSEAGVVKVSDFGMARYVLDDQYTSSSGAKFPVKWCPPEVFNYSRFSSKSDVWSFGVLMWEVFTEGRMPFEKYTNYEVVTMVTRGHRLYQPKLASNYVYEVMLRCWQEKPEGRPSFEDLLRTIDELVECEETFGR

The target in assay [6] is T4, Uncharacterized protein FLJ45252 (Homo sapiens, UniProt Q6ZSR9).
T4 sequence (Q6ZSR9 whole entry): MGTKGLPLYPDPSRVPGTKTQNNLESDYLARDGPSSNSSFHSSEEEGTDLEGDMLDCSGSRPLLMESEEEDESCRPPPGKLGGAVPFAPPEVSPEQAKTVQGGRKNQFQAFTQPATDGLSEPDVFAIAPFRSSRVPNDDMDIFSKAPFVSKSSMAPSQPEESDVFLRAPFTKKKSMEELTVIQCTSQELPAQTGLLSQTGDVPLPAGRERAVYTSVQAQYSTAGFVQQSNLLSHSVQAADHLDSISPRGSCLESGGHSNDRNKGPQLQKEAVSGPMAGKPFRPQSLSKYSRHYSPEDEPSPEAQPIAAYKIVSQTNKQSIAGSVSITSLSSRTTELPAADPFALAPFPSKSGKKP
Conditions: read-out: Kd apparent; k-562, colo 205, sk-n-be(2) and mv-4-11.

Ribosomal protein S6 kinase alpha-6, sequence (Q9UK32 whole entry): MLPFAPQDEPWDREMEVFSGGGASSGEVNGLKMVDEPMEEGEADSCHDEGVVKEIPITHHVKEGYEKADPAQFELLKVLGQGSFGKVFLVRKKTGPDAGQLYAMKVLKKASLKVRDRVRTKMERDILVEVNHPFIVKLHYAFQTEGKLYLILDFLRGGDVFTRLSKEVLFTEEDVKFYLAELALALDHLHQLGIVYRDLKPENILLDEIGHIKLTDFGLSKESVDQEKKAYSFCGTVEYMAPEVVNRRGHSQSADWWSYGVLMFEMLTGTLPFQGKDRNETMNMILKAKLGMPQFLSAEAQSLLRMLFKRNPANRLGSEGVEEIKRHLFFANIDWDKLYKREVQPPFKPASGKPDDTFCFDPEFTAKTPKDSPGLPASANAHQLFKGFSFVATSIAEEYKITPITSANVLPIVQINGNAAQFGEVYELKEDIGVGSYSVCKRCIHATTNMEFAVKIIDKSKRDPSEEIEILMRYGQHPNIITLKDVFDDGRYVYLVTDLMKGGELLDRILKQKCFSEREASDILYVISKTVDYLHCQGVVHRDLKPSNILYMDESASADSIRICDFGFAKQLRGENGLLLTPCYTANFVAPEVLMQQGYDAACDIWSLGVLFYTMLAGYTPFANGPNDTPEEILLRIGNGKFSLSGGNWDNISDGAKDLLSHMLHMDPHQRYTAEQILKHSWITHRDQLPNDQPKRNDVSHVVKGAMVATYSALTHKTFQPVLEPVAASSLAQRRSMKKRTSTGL
Activin receptor type-2B, sequence (Q13705 whole entry): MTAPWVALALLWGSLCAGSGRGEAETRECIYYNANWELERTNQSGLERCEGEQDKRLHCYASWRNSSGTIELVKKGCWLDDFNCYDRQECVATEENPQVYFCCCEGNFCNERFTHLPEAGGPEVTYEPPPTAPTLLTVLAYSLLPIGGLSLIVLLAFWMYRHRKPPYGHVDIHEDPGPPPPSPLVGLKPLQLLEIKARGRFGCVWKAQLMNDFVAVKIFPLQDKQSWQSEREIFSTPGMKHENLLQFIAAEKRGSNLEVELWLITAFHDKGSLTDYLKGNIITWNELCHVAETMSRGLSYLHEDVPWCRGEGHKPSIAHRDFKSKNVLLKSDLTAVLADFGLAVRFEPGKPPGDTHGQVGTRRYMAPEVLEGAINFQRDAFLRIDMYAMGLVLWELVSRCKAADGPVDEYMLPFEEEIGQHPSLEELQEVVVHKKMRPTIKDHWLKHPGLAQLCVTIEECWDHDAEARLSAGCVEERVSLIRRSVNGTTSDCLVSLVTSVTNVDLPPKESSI
Tyrosine-protein kinase ABL2, sequence (P42684 whole entry): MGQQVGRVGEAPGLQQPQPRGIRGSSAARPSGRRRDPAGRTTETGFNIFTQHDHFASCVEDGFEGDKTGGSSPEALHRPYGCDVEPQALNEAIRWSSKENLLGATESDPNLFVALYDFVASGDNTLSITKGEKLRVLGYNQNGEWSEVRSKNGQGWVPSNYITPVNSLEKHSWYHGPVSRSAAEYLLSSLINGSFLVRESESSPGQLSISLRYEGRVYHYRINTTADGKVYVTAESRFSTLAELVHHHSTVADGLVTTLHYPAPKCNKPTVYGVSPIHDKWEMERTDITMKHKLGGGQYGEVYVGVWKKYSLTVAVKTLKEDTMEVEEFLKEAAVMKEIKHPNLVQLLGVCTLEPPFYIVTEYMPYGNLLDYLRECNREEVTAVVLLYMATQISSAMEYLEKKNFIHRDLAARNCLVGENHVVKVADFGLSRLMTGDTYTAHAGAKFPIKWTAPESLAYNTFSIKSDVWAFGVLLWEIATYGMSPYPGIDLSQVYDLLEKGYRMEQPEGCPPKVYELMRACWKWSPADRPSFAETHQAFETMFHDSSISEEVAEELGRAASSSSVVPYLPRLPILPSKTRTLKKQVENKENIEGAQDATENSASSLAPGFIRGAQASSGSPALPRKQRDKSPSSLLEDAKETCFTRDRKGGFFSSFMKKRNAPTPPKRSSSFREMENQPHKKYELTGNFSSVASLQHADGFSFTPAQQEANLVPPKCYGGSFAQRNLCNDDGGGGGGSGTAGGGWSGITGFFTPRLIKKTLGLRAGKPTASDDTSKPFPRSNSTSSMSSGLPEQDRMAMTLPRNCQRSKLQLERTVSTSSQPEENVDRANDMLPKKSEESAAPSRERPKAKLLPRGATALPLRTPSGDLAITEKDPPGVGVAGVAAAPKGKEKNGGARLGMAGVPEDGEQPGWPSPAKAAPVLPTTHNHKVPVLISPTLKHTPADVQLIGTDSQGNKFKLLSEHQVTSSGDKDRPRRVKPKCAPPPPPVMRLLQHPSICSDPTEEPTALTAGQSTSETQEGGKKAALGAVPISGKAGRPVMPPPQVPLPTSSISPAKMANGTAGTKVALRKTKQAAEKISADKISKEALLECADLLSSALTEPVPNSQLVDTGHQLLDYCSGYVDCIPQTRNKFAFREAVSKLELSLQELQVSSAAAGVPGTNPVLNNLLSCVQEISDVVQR

`S=C(NCc1ccc2c(c1)OCO2)N1CCN(c2ncnc3c2oc2ccccc23)CC1` [AMUVATINIB]: the Kd (in assay [1]; on Activin receptor type-2B; at Ephrin type-B receptor 6; in assay [2]; in assay [3]; in assay [4]) was > 30 µM (inactive) each time. The Kd in assay [5] and in assay [6] was > 30 µM (inactive) throughout.
As for `O=c1[nH]c([C@@H]2CCCN2)nc2c1oc1ccc(Cl)cc12`, the Kd (in assay [1]; at Activin receptor type-2B; on Ephrin type-B receptor 6; in assay [3]; in assay [4]; in assay [5]) was > 30 µM (inactive) each time. Also, the Kd in assay [6] is > 30 µM (inactive).
Take `C[C@@]1(C(=O)Nc2ccc(F)nc2)CCCN1c1nc(Nc2cc(C3CC3)n[nH]2)c2cccn2n1` [BMS-754807]: the Kd in assay [2], in assay [3] and in assay [6] was > 30 µM (inactive) in each case.
In the case of `CN1CCN(c2nc(C3=C(c4c[nH]c5ccccc45)C(=O)NC3=O)c3ccccc3n2)CC1` [SOTRASTAURIN], the Kd (in assay [1]; at Activin receptor type-2B; at Ephrin type-B receptor 6; in assay [2]; in assay [3]; in assay [5]) was > 30 µM (inactive) each time. Also, in assay [6], the Kd was > 30 µM (inactive).
With `N#CCNC(=O)c1ccc(-c2ccnc(Nc3ccc(N4CCOCC4)cc3)n2)cc1` [MOMELOTINIB], the Kd (in assay [1]; at Activin receptor type-2B; at Ephrin type-B receptor 6; in assay [2]; in assay [3]; in assay [4]) was > 30 µM (inactive) throughout. In addition, the Kd in assay [5] is > 30 µM (inactive).
In the case of `COc1cc2c(Oc3ccc4[nH]c(C)cc4c3F)ncnc2cc1OCCCN1CCCC1` [CEDIRANIB], the Kd in assay [2] and in assay [3] was > 30 µM (inactive) in each case.
As to `Cn1cnc2c(F)c(Nc3ccc(Br)cc3Cl)c(C(=O)NOCCO)cc21` [SELUMETINIB], the Kd in assay [2] was > 30 µM (inactive); in assay [3], > 30 µM (inactive); in assay [6] it was 0.807 µM (active).
As for `COc1cc2c(N3CCN(C(=O)Nc4ccc(OC(C)C)cc4)CC3)ncnc2cc1OCCCN1CCCCC1` [TANDUTINIB], the Kd is 0.006 µM in assay [2] and > 30 µM (inactive) in assay [6].
Take `NC(=O)c1ccc(N(C(N)=O)c2c(F)cccc2F)nc1-c1ccc(F)cc1F` [VX-702]: the Kd (in assay [1]; at Ephrin type-B receptor 6; in assay [2]; in assay [3]; in assay [4]; in assay [5]) was > 30 µM (inactive) each time. Also, in assay [6], the Kd was > 30 µM (inactive).
For the molecule `C=CC(=O)Nc1cc(Nc2nccc(-c3cn(C)c4ccccc34)n2)c(OC)cc1N(C)CCN(C)C` [OSIMERTINIB], the Kd (in assay [1]; on Activin receptor type-2B; at Ephrin type-B receptor 6; in assay [2]; in assay [3]; in assay [4]) was > 30 µM (inactive) each time. For the same molecule, in assay [5], the Kd was 0.321 µM (active).
Take `COc1cccc(Nc2ncnn3ccc(CN4CC[C@@H](N)[C@H](O)C4)c23)c1` [BMS-690514]: the Kd in assay [1] is 0.04 µM (active); on Activin receptor type-2B, > 30 µM (inactive); at Ephrin type-B receptor 6 it was > 30 µM (inactive); in assay [2], > 30 µM (inactive); in assay [3] it was > 30 µM (inactive); in assay [4], > 30 µM (inactive). Moreover, in assay [5], the Kd is > 30 µM (inactive).
`CC1(C)CNc2cc(NC(=O)c3cccnc3NCc3ccncc3)ccc21` [MOTESANIB]: the Kd in assay [2], in assay [3] and in assay [6] was > 30 µM (inactive) throughout.
On to `Cn1c(=O)c(F)c(Nc2ccc(I)cc2F)c2c(=O)n(C[C@@H](O)CO)cnc21` [TAK-733], for which the Kd (in assay [1]; on Activin receptor type-2B; in assay [2]; in assay [3]; in assay [4]; in assay [5]) was > 30 µM (inactive) in each case. For the same molecule, the Kd in assay [6] was > 30 µM (inactive).
Regarding `FC(F)(F)c1ccc(CNc2ccc(Cc3c[nH]c4ncc(Cl)cc34)cn2)cn1` [PEXIDARTINIB], the Kd (in assay [1]; on Activin receptor type-2B; on Ephrin type-B receptor 6; in assay [2]; in assay [3]; in assay [4]) was > 30 µM (inactive) in each case. Further, the Kd in assay [5] is > 30 µM (inactive).
For `CN(C)C/C=C/C(=O)Nc1cc2c(Nc3ccc(F)c(Cl)c3)ncnc2cc1O[C@H]1CCOC1` [AFATINIB], the Kd in assay [2], in assay [3] and in assay [6] was > 30 µM (inactive) throughout.
On to `CCOc1ccn(-c2ccc(F)cc2)c(=O)c1C(=O)Nc1ccc(Oc2ccnc(N)c2Cl)c(F)c1` [BMS-777607], for which the Kd (at Activin receptor type-2B; on Ephrin type-B receptor 6; in assay [2]; in assay [3]; in assay [4]; in assay [5]) was > 30 µM (inactive) in each case.
On to `O=S(=O)(c1cccc2cnccc12)N1CCCNCC1` [FASUDIL], for which the Kd (in assay [1]; on Activin receptor type-2B; at Ephrin type-B receptor 6; in assay [2]; in assay [4]; in assay [5]) was > 30 µM (inactive) each time. Moreover, the Kd in assay [6] is > 30 µM (inactive).
